Data from US6737383B1, “Herbicidal oxadiazolidines” (priority 1999, dated 2004).

Assays:
surinam grass = assay: Test B pre/postemergence surinam grass; format: in vivo, Brachiaria decumbens
In short: (§1)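 Response is a visual 0-to-10 score relative to untreated plants, where 0 means no effect and 10 means complete control, taken twelve to sixteen days after application. Treatments went onto soil at planting and onto foliage of 1- to 4-leaf plants, using a surfactant-containing non-phytotoxic solvent.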

cocklebur = assay: Test B pre/postemergence cocklebur; format: in vivo, Xanthium strumarium
In short: as §1

corn = assay: Test B pre/postemergence corn; format: in vivo, Zea mays
In short: as §1

crabgrass = assay: Test B pre/postemergence crabgrass; format: in vivo, Digitaria sanguinalis
In short: as §1

giant foxtail = assay: Test B pre/postemergence giant foxtail; format: in vivo, Setaria faberii
In short: as §1

morningglory = assay: Test B pre/postemergence morningglory; format: in vivo, Ipomoea hederacea; details: for Plant response rating, Morningglory: scale of 0 to 10 where 0 is no effect and 10 is complete control
In short: as §1

pigweed = assay: Test B pre/postemergence pigweed; format: in vivo, Amaranthus retroflexus; details: for Plant response rating, Redroot pigweed: scale of 0 to 10 where 0 is no effect and 10 is complete control
In short: as §1

rape = assay: Test B pre/postemergence rape; format: in vivo, Brassica napus; details: for Plant response rating, Rape: scale of 0 to 10 where 0 is no effect and 10 is complete control
In short: as §1

soybean = assay: Test B pre/postemergence soybean; format: in vivo, Glycine max; details: for Plant response rating, Soybean: scale of 0 to 10 where 0 is no effect and 10 is complete control
In short: as §1

sugar beet = assay: Test B pre/postemergence sugar beet; format: in vivo, Beta vulgaris; details: for Plant response rating, Sugarbeets: scale of 0 to 10 where 0 is no effect and 10 is complete control
In short: as §1

wild oat = assay: Test B pre/postemergence wild oat; format: in vivo, Avena fatua; details: for Plant response rating, Wild oats: scale of 0 to 10 where 0 is no effect and 10 is complete control
In short: as §1

purple nutsedge = assay: Test B pre/postemergence purple nutsedge; format: in vivo, Cyperus rotundus; details: for Plant response rating, Nutsedge: scale of 0 to 10 where 0 is no effect and 10 is complete control
In short: as §1

rice = assay: Test B flood test rice; format: in vivo, Oryza sativa
In short: (§2)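 Plants were grown to the 2-leaf stage before treatment with test chemical, then held in a greenhouse for twelve to sixteen days. Injury was visually rated against untreated controls on a 0–10 scale, where 0 is no effect and 10 is complete control.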

smallflower flatsedge = assay: Test B flood test smallflower flatsedge; format: in vivo, Cyperus difformis
In short: as §2

duck salad = assay: Test B flood test duck salad; format: in vivo, Heteranthera limosa
In short: as §2

bamyardgrass = assay: Test B flood test barnyardgrass; format: in vivo, Echinochloa crus-galli
In short: as §2

[1] = Postemergence, Rate 500 g/ha, scale of 0 to 10 where 0 is no effect and 10 is complete control
[2] = Preemergence, Rate 62 g/ha, scale of 0 to 10 where 0 is no effect and 10 is complete control
[3] = Preemergence, Rate 125 g/ha, scale of 0 to 10 where 0 is no effect and 10 is complete control
[4] = Preemergence, Rate 250 g/ha, scale 0 to 10, 0 is no effect, 10 is complete control
[5] = Preemergence, Rate 500 g/ha, scale 0 to 10, 0 is no effect, 10 is complete control
[6] = Rate 62 g/ha, Postemergence, scale 0 to 10 (0 no effect, 10 complete control)
[7] = Rate 125 g/ha, Postemergence, scale 0 to 10, 0 is no effect, 10 is complete control
[8] = Postemergence, Rate 250 g/ha, scale 0 to 10
[9] = Rate 62 g/ha, flood test species, Pre-emergence, visual evaluation after twelve to sixteen days
[10] = Rate 125 g/ha, under heading Pre-emergence, flood test species, visual evaluation after twelve to sixteen days
[11] = Rate 250 g/ha, Pre-emergence (flood test species), scale 0 to 10, 0 is no effect, 10 is complete control
[12] = Rate 500 g/ha, Pre-emergence, flood test species, scale 0 to 10 (0 no effect, 10 complete control)

CC[Si](C)(C)Cn1c(=O)on(C(=O)N(c2ccc(Cl)cc2)C(C)C)c1=O [Compound 460]
B. signalgrass plant response rating (surinam grass; Postemergence, Rate 250 g/ha, scale 0 to 10, 0 no effect, 10 complete control): 0
B. signalgrass plant response rating (surinam grass; [1]): 2
Plant response rating, B. signalgrass (surinam grass; [2]): 0
Plant response rating, B. signalgrass (surinam grass; [3]): 0
B. signalgrass plant response rating (surinam grass; [4]): 0
B. signalgrass plant response rating (surinam grass; [5]): 0
B. signalgrass plant response rating (surinam grass; [6]): 0
B. signalgrass plant response rating (surinam grass; [7]): 0
Cocklebur plant response rating (cocklebur; [8]): 0
Cocklebur plant response rating (cocklebur; [1]): 0
Plant response rating, Cocklebur (cocklebur; [2]): 0
Plant response rating, Cocklebur (cocklebur; [3]): 0
Cocklebur plant response rating (cocklebur; [4]): 0
Cocklebur plant response rating (cocklebur; [5]): 0
Cocklebur plant response rating (cocklebur; [6]): 0
Cocklebur plant response rating (cocklebur; [7]): 0
Corn plant response rating (corn; [8]): 0
Corn plant response rating (corn; [1]): 0
Plant response rating, Corn (corn; [2]): 0
Plant response rating, Corn (corn; [3]): 0
Corn plant response rating (corn; [4]): 0
Corn plant response rating (corn; [5]): 2
Corn plant response rating (corn; [6]): 0
Corn plant response rating (corn; [7]): 0
Crabgrass plant response rating (crabgrass; [8]): 9
Crabgrass plant response rating (crabgrass; [1]): 9
Plant response rating, Crabgrass (crabgrass; [2]): 0
Plant response rating, Crabgrass (crabgrass; [3]): 1
Crabgrass plant response rating (crabgrass; [4]): 6
Crabgrass plant response rating (crabgrass; [5]): 9
Crabgrass plant response rating (crabgrass; [6]): 3
Crabgrass plant response rating (crabgrass; [7]): 6
Giant foxtail plant response rating (giant foxtail; [8]): 0
Giant foxtail plant response rating (giant foxtail; [1]): 1
Plant response rating, Giant foxtail (giant foxtail; [2]): 0
Plant response rating, Giant foxtail (giant foxtail; [3]): 6
Giant foxtail plant response rating (giant foxtail; [4]): 8
Giant foxtail plant response rating (giant foxtail; [5]): 9
Giant foxtail plant response rating (giant foxtail; [6]): 0
Giant foxtail plant response rating (giant foxtail; [7]): 0
Morningglory plant response rating (morningglory; [8]): 7
Plant response rating, Morningglory (morningglory; Preemergence, Rate 62 g/ha): 0
Plant response rating, Morningglory (morningglory; Preemergence, Rate 125 g/ha): 0
Morningglory plant response rating (morningglory; [4]): 0
Morningglory plant response rating (morningglory; [5]): 0
Morningglory plant response rating (morningglory; [6]): 7
Morningglory plant response rating (morningglory; [7]): 7
Redroot pigweed plant response rating (pigweed; [8]): 1
Plant response rating, Redroot pigweed (pigweed; Preemergence, Rate 62 g/ha): 0
Plant response rating, Redroot pigweed (pigweed; Preemergence, Rate 125 g/ha): 0
Redroot pigweed plant response rating (pigweed; [4]): 0
Redroot pigweed plant response rating (pigweed; [5]): 0
Redroot pigweed plant response rating (pigweed; [6]): 0
Redroot pigweed plant response rating (pigweed; [7]): 0
Rape plant response rating (rape; [8]): 0
Plant response rating, Rape (rape; Preemergence, Rate 62 g/ha): 0
Plant response rating, Rape (rape; Preemergence, Rate 125 g/ha): 0
Rape plant response rating (rape; [4]): 0
Rape plant response rating (rape; [5]): 0
Rape plant response rating (rape; [6]): 0
Rape plant response rating (rape; [7]): 0
Soybean plant response rating (soybean; [8]): 4
Plant response rating, Soybean (soybean; Preemergence, Rate 62 g/ha): 0
Plant response rating, Soybean (soybean; Preemergence, Rate 125 g/ha): 0
Soybean plant response rating (soybean; [4]): 0
Soybean plant response rating (soybean; [5]): 0
Soybean plant response rating (soybean; [6]): 3
Soybean plant response rating (soybean; [7]): 3
Sugarbeets plant response rating (sugar beet; [8]): 0
Plant response rating, Sugarbeets (sugar beet; Preemergence, Rate 62 g/ha): 0
Plant response rating, Sugarbeets (sugar beet; Preemergence, Rate 125 g/ha): 0
Sugarbeets plant response rating (sugar beet; [4]): 0
Sugarbeets plant response rating (sugar beet; [5]): 0
Sugarbeets plant response rating (sugar beet; [6]): 0
Sugarbeets plant response rating (sugar beet; [7]): 0
Wild oats plant response rating (wild oat; [8]): 0
Plant response rating, Wild oats (wild oat; Preemergence, Rate 62 g/ha): 0
Plant response rating, Wild oats (wild oat; Preemergence, Rate 125 g/ha): 0
Wild oats plant response rating (wild oat; [4]): 0
Wild oats plant response rating (wild oat; [5]): 0
Wild oats plant response rating (wild oat; [6]): 0
Wild oats plant response rating (wild oat; [7]): 0
Nutsedge plant response rating (purple nutsedge; [8]): 0
Plant response rating, Nutsedge (purple nutsedge; Preemergence, Rate 62 g/ha): 0
Plant response rating, Nutsedge (purple nutsedge; Preemergence, Rate 125 g/ha): 0
Nutsedge plant response rating (purple nutsedge; [4]): 0
Nutsedge plant response rating (purple nutsedge; [5]): 0
Nutsedge plant response rating (purple nutsedge; [6]): 0
Nutsedge plant response rating (purple nutsedge; [7]): 0
Plant response rating, Rice (0 to 10 scale, 0 is no effect, 10 is complete control) (rice; [9]): 0
Rice plant response rating (0 to 10 scale, 0 is no effect, 10 is complete control) (rice; [10]): 0
Rice plant response rating (rice; [11]): 0
Rice plant response rating (rice; [12]): 0
Plant response rating, S. Flatsedge (0 to 10 scale, 0 is no effect, 10 is complete control) (smallflower flatsedge; [9]): 0
S. Flatsedge plant response rating (0 to 10 scale, 0 is no effect, 10 is complete control) (smallflower flatsedge; [10]): 0
S. Flatsedge plant response rating (smallflower flatsedge; [11]): 0
S. Flatsedge plant response rating (smallflower flatsedge; [12]): 0
Plant response rating, Ducksalad (0 to 10 scale, 0 is no effect, 10 is complete control) (duck salad; [9]): 0
Ducksalad plant response rating (0 to 10 scale, 0 is no effect, 10 is complete control) (duck salad; [10]): 0
Ducksalad plant response rating (duck salad; [11]): 0
Ducksalad plant response rating (duck salad; [12]): 0
Plant response rating, Barnyardgrass (0 to 10 scale, 0 is no effect, 10 is complete control) (bamyardgrass; [9]): 0
Barnyardgrass plant response rating (0 to 10 scale, 0 is no effect, 10 is complete control) (bamyardgrass; [10]): 0
Barnyardgrass plant response rating (bamyardgrass; [11]): 0
Barnyardgrass plant response rating (bamyardgrass; [12]): 0
